What all share (assay): NCI-60 cell line screen, 48 h
The subject of test [1] is 786-0 renal.
Test [2] has as its system HCT-15 colon.
The test system of test [3] is HL-60(TB) leukemia.
Test [4] deals with IGROV1 ovarian.
Test [5] deals with MCF7 breast.
In test [6] the test system is NCI-H460 lung.
In test [7] the test system is SF-295 CNS.
Test [8] concerns SN12C renal.
In test [9] the test system is U251 CNS.
Test [10] concerns UACC-62 melanoma.

Values joined by “and” are separate entries in the source; they are usually repeats but may differ in a detail not shown here. Equal entries are not always repeated.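 The compound was tested at five concentrations on cells cultured in 96-well plates, with a 48-hour exposure period. Abbreviation: GI50, concentration required for 50% inhibition of growth. TGI: concentration producing complete growth inhibition.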

As for `Fc1cccc(COc2ccc(Nc3ncnc4sc(-c5ccco5)cc34)cc2Cl)c1`, the GI50 in test [1], in test [2], in [3], in test [4], in test [5] and in [6] was above 25 µM each time. For the same compound, the GI50 in test [7], in test [8], in [9] and in test [10] was above 25 µM each time. Moreover, the TGI in test [1], in test [2], in test [3], in [4], in test [5] and in [6] was above 25 µM throughout. Further, the TGI in [7], in test [8], in [9] and in test [10] was above 25 µM each time.

Turning to `N/C(=N\OC(=O)c1ccccc1)C(C(=O)NOC(=O)c1ccccc1)C1CCCCC1` (configuration not stated), the GI50 in [1] was 13.9 µM; in test [2] it was 9.65 µM; in test [3], 2.38 µM; in test [4], 1.66 µM; in test [5], 8.22 µM; in test [6], 2.85 µM. In addition, the GI50 in test [7] is 2.11 µM; in test [8] it was 13.4 µM; in [9], 1.78 µM; in test [10] it was 11.4 µM. Besides, the TGI in test [1] was determined as 26.9 µM; in test [2], 23.5 µM; in test [3], 6.07 µM; in test [4], 3.92 µM; in [5], 23 µM; in test [6] it was 9.61 µM. Also, the TGI in test [7] was 5.73 µM; in test [8] it was 69.4 µM; in test [9], 3.87 µM; in test [10], 32.9 µM.

Consider `O=C(O)c1cc[c]([Hg][S]c2ncnc3nc[nH]c23)cc1`, for which the GI50 in [1] was 5.83 µM; in test [2], 11.2 µM; in test [3], 0.4 µM; in [4] it was 9.25 µM; in test [5], 2.6 µM; in [6], 13.1 µM. For the same compound, the GI50 is 11.7 µM in [7], 17.5 µM in test [8], 14.4 µM in test [9] and 2.88 µM in test [10]. For the same compound, the TGI in [1] was 21.9 µM; in [2], 27.2 µM; in test [3] it was 13.4 µM; in test [4], 23.8 µM; in [5] it was above 38.9 µM; in test [6], 28.5 µM. Further, the TGI in test [7] is above 100 µM; in [8], 38.6 µM; in test [9], 28.2 µM; in [10], 15.4 µM.

As to `CN1CCCN(CCNc2nccc(-c3c(-c4cccc(O)c4)nc4sccn34)n2)S1(=O)=O`, the GI50 in test [1] is 5.55 µM and 7.14 µM; in test [2] it was 7.12 µM and 5.51 µM; in [3], 14.1 µM and 11.3 µM; in test [4] it was 3.93 µM and 5.33 µM; in [5], 22.1 µM and 18.8 µM; in test [6], 4.41 µM and 4.72 µM. The GI50 in test [7] was 12.9 µM and 13.3 µM; in [8], 8.55 µM and 6.23 µM; in test [9], 8.99 µM and 11.9 µM; in test [10], 0.0417 µM and 0.0537 µM. The TGI in test [1] was 72.4 µM and > 100 µM; in [2], 75 µM and 98.4 µM; in test [3] it was 38.3 µM and 32 µM; in test [4], 16.6 µM and 43.6 µM; in test [5] it was 75 µM and > 100 µM; in test [6], 75 µM and > 75.9 µM. In addition, the TGI is 32.1 µM and 38.8 µM in [7]; 75 µM and > 100 µM in test [8]; 50.4 µM and > 51.1 µM in test [9]; 1.4 µM and 2.22 µM in test [10].

As to `CC1(C)CCC(C)(C)c2cc(C(=O)Nc3ccc(C(=O)O)cc3)ccc21`, the TGI in test [1] was above 56.5 µM; in [2], 63 µM; in test [3] it was above 53.1 µM; in [4], 63.7 µM; in test [5], above 100 µM; in [6] it was 46.9 µM. Further, the TGI in test [7] is above 54.7 µM; in test [8], above 100 µM; in [9], above 100 µM; in test [10] it was 41.2 µM.

On to `COc1cc(/C=C2\CN(C)CC3=C2Nc2nc(SC)[nH]c(=O)c2C3c2cc(OC)c(OC)c(OC)c2)cc(OC)c1OC` (configuration not stated), for which the GI50 is 4.01 µM in test [1]; 2.07 µM in [2]; 2.26 µM in [3]; 3.1 µM in [4]; 4.98 µM in [5]; 2.3 µM in test [6]. The GI50 in test [7] is 2.24 µM; in test [8] it was 2.98 µM; in [9] it was 1.76 µM; in [10], 2.06 µM. The TGI in test [1] worked out at 16.9 µM; in [2] it was 4.79 µM; in test [3], 9.66 µM; in test [4], 12.6 µM; in test [5], 18.3 µM; in [6], 5.4 µM. Further, the TGI in test [7] came to 5.47 µM; in [8], 15.5 µM; in [9], 4.14 µM; in [10], 5.11 µM.

Take `COc1ccc(-c2cc(-c3ccc(Cl)cc3)c(C#N)c(=O)n2CCCCC(=O)Nc2ccccc2N)cc1`: the GI50 in test [1] was 7.46 µM; in test [2], 3.03 µM; in test [3], 2.08 µM; in [4], 4.9 µM; in test [5] it was 4.03 µM; in [6], 4.26 µM. In addition, the GI50 was 2.33 µM in test [7], 9.32 µM in test [8], 7.97 µM in [9] and 3.29 µM in test [10]. In addition, the TGI in test [1] was above 100 µM; in test [2] it was 13 µM; in [3], 5.7 µM; in test [4], above 100 µM; in [5], above 100 µM; in test [6], 56.6 µM. The TGI in test [7] is 5.96 µM; in test [8], above 100 µM; in test [9] it was above 100 µM; in test [10], 13 µM.

As to `CC(C)c1ccc2nc3ccc(C(=O)NCCN(C)C)cn3c(=O)c2c1`, the TGI in test [1] is 27.8 µM; in test [2], 28.5 µM; in [3], 42.1 µM; in test [4], above 100 µM; in test [5], 30.8 µM; in [6] it was 33.7 µM. The TGI was 23.8 µM in test [7], 35.9 µM in test [8], 39.9 µM in test [9] and 32.3 µM in [10].

Regarding `Nc1c(C(=O)Nc2ccc([As](=O)(O)O)cc2)cnc2nnnn12`, the TGI in test [1], in [2], in test [3], in [4], in test [5] and in test [6] was above 100 µM in each case. In addition, the TGI in test [7], in [8], in [9] and in test [10] was above 100 µM each time.

With `CN1C2CC(C#N)C1C=CC2=O` (configuration not stated), the GI50 in [1] was 17.4 µM and > 100 µM; in test [2] it was 13.6 µM and > 100 µM; in test [4], 42.8 µM and > 100 µM; in test [6] it was 15.8 µM and 73.2 µM; in test [8] it was above 100 µM; in test [9] it was 12.4 µM and 72.1 µM. In addition, the GI50 in test [10] was 27.7 µM and 63.2 µM. Moreover, the TGI in [1] was 42.6 µM and > 100 µM; in test [2], 40.7 µM and > 100 µM; in [3] it was 53.4 µM and > 100 µM; in [4], above 100 µM; in [5] it was above 100 µM; in test [6], 32.4 µM and > 100 µM. Further, the TGI in [7] was 19.1 µM and > 100 µM; in test [8] it was above 100 µM; in [9], 61.5 µM and > 100 µM; in [10], above 100 µM.

Consider `Cc1ccc(C(=O)/C(=C/c2ccc([N+](=O)[O-])cc2)S(=O)Cc2ccccc2)cc1` (configuration not stated), for which the GI50 in test [1] is 1.44 µM; in [2], 1.07 µM; in test [3], 1.59 µM; in test [4], 1.42 µM; in [5] it was 0.372 µM; in [6], 1.83 µM. For the same compound, the GI50 in test [7] was 2.45 µM; in [8] it was 1.71 µM; in [9], 1.02 µM; in [10], 1.3 µM. Moreover, the TGI in test [1] is 2.81 µM; in [2], 2.59 µM; in test [3], 5.81 µM; in test [4], 3.29 µM; in test [5] it was 2.2 µM; in [6], 4.92 µM. For the same compound, the TGI in test [7] came to 5.96 µM; in [8], 3.4 µM; in test [9] it was 2.24 µM; in test [10] it was 2.79 µM.

The record behind these values is PubChem BioAssay (NCI).
